Laboratory results: patent US12077503B2, “Substituted cyclic amides and their use as herbicides” (FMC CORPORATION, priority 2015, dated 2024)

Experiments:
Type in all cases: in vivo
[1] = tested on: barnyardgrass (Echinochloa crus-galli); assay: Test G Pre-Emergence Protocol; details: Echinochloa crus-galli, pre-emergence, 312 h, evaluated after 13 days; for pest or weed control at 15.625 g/ha: 15.625 g ai/ha, read-out: Barnyard grass damage rating (100=total damage to plant; 0=no damage to plant); for pest or weed control at 62.5 g/ha: 62.5 g ai/ha, 100=total damage to plant, 0=no damage to plant, read-out: plant damage rating, Barnyardgrass; for pest or weed control at 250 g/ha: 250 g ai/ha, read-out: Barnyardgrass damage rating (100=total damage to plant; 0=no damage to plant)
Summary of the method: (§1)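 Visual injury (0–100) at day 13 after a single pre-emergence spray. Rates: 15.625, 62.5, 250 g/ha in acetone–water 50:50 with 0.5% Tween 20. Growth conditions: 24/16° C, 14 h light, 65% humidity.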

[2] = tested on: velvetleaf (Abutilon theophrasti); assay: Test G Pre-Emergence Protocol; details: Abutilon theophrasti, pre-emergence, 312 h, evaluated after 13 days; for pest or weed control at 15.625 g/ha: 15.625 g ai/ha; for pest or weed control at 15.625 g/ha / pest or weed control at 250 g/ha: read-out: Velvetleaf damage rating (100=total damage to plant; 0=no damage to plant); for pest or weed control at 62.5 g/ha: 62.5 g ai/ha, 100=total damage to plant, 0=no damage to plant, read-out: plant damage rating, Velvetleaf; for pest or weed control at 250 g/ha: 250 g ai/ha
Summary of the method: as §1

[3] = tested on: giant foxtail (Setaria faberi); assay: Test G Pre-Emergence Protocol; details: Setaria faberi, pre-emergence, 312 h, evaluated after 13 days; for pest or weed control at 15.625 g/ha: 15.625 g ai/ha; for pest or weed control at 15.625 g/ha / pest or weed control at 250 g/ha: read-out: Foxtail, Giant damage rating (100=total damage to plant; 0=no damage to plant); for pest or weed control at 62.5 g/ha: 62.5 g ai/ha, 100=total damage to plant, 0=no damage to plant, read-out: plant damage rating, Foxtail, Giant; for pest or weed control at 250 g/ha: 250 g ai/ha
Summary of the method: as §1

[4] = tested on: ivy-leaved morning glory (Ipomoea hederacea); assay: Test G Pre-Emergence Protocol; details: Ipomoea, pre-emergence, 312 h, evaluated after 13 days; for pest or weed control at 62.5 g/ha: 62.5 g ai/ha, 100=total damage to plant, 0=no damage to plant, read-out: plant damage rating, Morningglory, Ivy-leaved; for pest or weed control at 250 g/ha: 250 g ai/ha, read-out: Morningglory, Ivy-leaved damage rating (100=total damage to plant; 0=no damage to plant)
Summary of the method: as §1

corn (Zea mays) [5] = assay: Test G Pre-Emergence Protocol; details: Zea mays, pre-emergence, 312 h, evaluated after 13 days; for plant injury at 15.625 g/ha: 15.625 g ai/ha; for plant injury at 15.625 g/ha / plant injury at 250 g/ha: read-out: Corn damage rating (100=total damage to plant; 0=no damage to plant); for plant injury at 62.5 g/ha: 62.5 g ai/ha, 100=total damage to plant, 0=no damage to plant, read-out: plant damage rating, Corn; for plant injury at 250 g/ha: 250 g ai/ha
Summary of the method: as §1

[6] = tested on: redroot pigweed (Amaranthus retroflexus); assay: Test G Pre-Emergence Protocol; details: Amaranthus retroflexus, pre-emergence, 312 h, evaluated after 13 days; for pest or weed control at 15.625 g/ha: 15.625 g ai/ha; for pest or weed control at 15.625 g/ha / pest or weed control at 250 g/ha: read-out: Pigweed, Redroot damage rating (100=total damage to plant; 0=no damage to plant); for pest or weed control at 62.5 g/ha: 62.5 g ai/ha, 100=total damage to plant, 0=no damage to plant, read-out: plant damage rating, Pigweed, Redroot; for pest or weed control at 250 g/ha: 250 g ai/ha
Summary of the method: as §1

[7] = tested on: barnyardgrass (Echinochloa crus-galli); assay: Test G Post-Emergence Protocol; details: Echinochloa crus-galli, post-emergence, 312 h; for pest or weed control at 15.625 g/ha: 15.625 g ai/ha, evaluated after 13 days (100=total damage to plant; 0=no damage to plant), read-out: Barnyardgrass damage rating; for pest or weed control at 62.5 g/ha: 62.5 g ai/ha, read-out: Barnyardgrass damage rating (100=total damage to plant; 0=no damage to plant); for pest or weed control at 62.5 g/ha / pest or weed control at 250 g/ha: evaluated after 13 days; for pest or weed control at 250 g/ha: 250 g ai/ha, read-out: damage to plant, Barnyardgrass (100=total damage to plant; 0=no damage to plant)
Summary of the method: (§2)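 A glasshouse post-emergence test: 8-day-old plants sprayed at 15.625, 62.5 or 250 g/ha, then grown at 24/16 °C day/night with 14 h light and 65% humidity. Damage rated 13 days later, 0–100.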

[8] = tested on: velvetleaf (Abutilon theophrasti); assay: Test G Post-Emergence Protocol; details: Abutilon theophrasti, post-emergence, 312 h; for pest or weed control at 15.625 g/ha: 15.625 g ai/ha, evaluated after 13 days (100=total damage to plant; 0=no damage to plant), read-out: Velvetleaf damage rating; for pest or weed control at 62.5 g/ha: 62.5 g ai/ha, read-out: Velvetleaf damage rating (100=total damage to plant; 0=no damage to plant); for pest or weed control at 62.5 g/ha / pest or weed control at 250 g/ha: evaluated after 13 days; for pest or weed control at 250 g/ha: 250 g ai/ha, read-out: damage to plant, Velvetleaf (100=total damage to plant; 0=no damage to plant)
Summary of the method: as §2

[9] = tested on: giant foxtail (Setaria faberi); assay: Test G Post-Emergence Protocol; details: Setaria faberi, post-emergence, 312 h; for pest or weed control at 15.625 g/ha: 15.625 g ai/ha, evaluated after 13 days (100=total damage to plant; 0=no damage to plant), read-out: Foxtail, Giant damage rating; for pest or weed control at 62.5 g/ha: 62.5 g ai/ha, read-out: Foxtail, Giant damage rating (100=total damage to plant; 0=no damage to plant); for pest or weed control at 62.5 g/ha / pest or weed control at 250 g/ha: evaluated after 13 days; for pest or weed control at 250 g/ha: 250 g ai/ha, read-out: damage to plant, Foxtail, Giant (100=total damage to plant; 0=no damage to plant)
Summary of the method: as §2

[10] = tested on: ivy-leaved morning glory (Ipomoea hederacea); assay: Test G Post-Emergence Protocol; details: Ipomoea, post-emergence, 312 h; for pest or weed control at 15.625 g/ha: 15.625 g ai/ha, evaluated after 13 days (100=total damage to plant; 0=no damage to plant), read-out: Morningglory, Ivy-leaved damage rating; for pest or weed control at 62.5 g/ha: 62.5 g ai/ha, read-out: Morningglory, Ivy-leaved damage rating (100=total damage to plant; 0=no damage to plant); for pest or weed control at 62.5 g/ha / pest or weed control at 250 g/ha: evaluated after 13 days; for pest or weed control at 250 g/ha: 250 g ai/ha, read-out: damage to plant, Morningglory, Ivy-leaved (100=total damage to plant; 0=no damage to plant)
Summary of the method: as §2

corn (Zea mays) [11] = assay: Test G Post-Emergence Protocol; details: Zea mays, post-emergence, 312 h; for plant injury at 15.625 g/ha: 15.625 g ai/ha, evaluated after 13 days (100=total damage to plant; 0=no damage to plant), read-out: Corn damage rating; for plant injury at 62.5 g/ha: 62.5 g ai/ha, read-out: Corn damage rating (100=total damage to plant; 0=no damage to plant); for plant injury at 62.5 g/ha / plant injury at 250 g/ha: evaluated after 13 days; for plant injury at 250 g/ha: 250 g ai/ha, read-out: damage to plant, Corn (100=total damage to plant; 0=no damage to plant)
Summary of the method: as §2

[12] = tested on: redroot pigweed (Amaranthus retroflexus); assay: Test G Post-Emergence Protocol; details: Amaranthus retroflexus, post-emergence, 312 h; for pest or weed control at 15.625 g/ha: 15.625 g ai/ha, evaluated after 13 days (100=total damage to plant; 0=no damage to plant), read-out: Pigweed, Redroot damage rating; for pest or weed control at 62.5 g/ha: 62.5 g ai/ha, read-out: Pigweed, Redroot damage rating (100=total damage to plant; 0=no damage to plant); for pest or weed control at 62.5 g/ha / pest or weed control at 250 g/ha: evaluated after 13 days; for pest or weed control at 250 g/ha: 250 g ai/ha, read-out: damage to plant, Pigweed, Redroot (100=total damage to plant; 0=no damage to plant)
Summary of the method: as §2

Cc1conc1NC(=O)[C@@H]1C(=O)N(C)C[C@H]1c1ccc(C(F)(F)F)cc1 (racemic) [Compound 1553]
pest or weed control at 15.625 g/ha [1]: 0% | pest or weed control at 62.5 g/ha [1]: 0% | pest or weed control at 250 g/ha [1]: 0% | pest or weed control at 15.625 g/ha [2]: 0% | pest or weed control at 62.5 g/ha [2]: 0% | pest or weed control at 250 g/ha [2]: 0% | pest or weed control at 15.625 g/ha [3]: 0% | pest or weed control at 62.5 g/ha [3]: 0% | pest or weed control at 250 g/ha [3]: 0% | pest or weed control at 62.5 g/ha [4]: 0% | pest or weed control at 250 g/ha [4]: 0% | plant injury at 15.625 g/ha (corn (Zea mays) [5]): 0% | plant injury at 62.5 g/ha (corn (Zea mays) [5]): 0% | plant injury at 250 g/ha (corn (Zea mays) [5]): 0% | pest or weed control at 15.625 g/ha [6]: 0% | pest or weed control at 62.5 g/ha [6]: 0% | pest or weed control at 250 g/ha [6]: 0% | pest or weed control at 15.625 g/ha [7]: 0% | pest or weed control at 62.5 g/ha [7]: 0% | pest or weed control at 250 g/ha [7]: 0% | pest or weed control at 15.625 g/ha [8]: 0% | pest or weed control at 62.5 g/ha [8]: 0% | pest or weed control at 250 g/ha [8]: 0% | pest or weed control at 15.625 g/ha [9]: 0% | pest or weed control at 62.5 g/ha [9]: 0% | pest or weed control at 250 g/ha [9]: 0% | pest or weed control at 15.625 g/ha [10]: 0% | pest or weed control at 62.5 g/ha [10]: 0% | pest or weed control at 250 g/ha [10]: 0% | plant injury at 15.625 g/ha (corn (Zea mays) [11]): 0% | plant injury at 62.5 g/ha (corn (Zea mays) [11]): 0% | plant injury at 250 g/ha (corn (Zea mays) [11]): 0% | pest or weed control at 15.625 g/ha [12]: 0% | pest or weed control at 62.5 g/ha [12]: 0% | pest or weed control at 250 g/ha [12]: 0%

Cc1cc(NC(=O)[C@@H]2C(=O)N(C)C[C@H]2c2ccc(C(F)(F)F)cc2)sn1 (racemic) [Compound 1560]
pest or weed control at 15.625 g/ha [1]: 0% | pest or weed control at 62.5 g/ha [1]: 0% | pest or weed control at 250 g/ha [1]: 10% | pest or weed control at 15.625 g/ha [2]: 0% | pest or weed control at 62.5 g/ha [2]: 0% | pest or weed control at 250 g/ha [2]: 0% | pest or weed control at 15.625 g/ha [3]: 0% | pest or weed control at 62.5 g/ha [3]: 0% | pest or weed control at 250 g/ha [3]: 10% | pest or weed control at 15.625 g/ha ([4]; 15.625 g ai/ha, read-out: Morning-glory, Ivy-leaved damage rating (100=total damage to plant; 0=no damage to plant)): 0% | pest or weed control at 62.5 g/ha [4]: 0% | pest or weed control at 250 g/ha [4]: 0% | plant injury at 15.625 g/ha (corn (Zea mays) [5]): 0% | plant injury at 62.5 g/ha (corn (Zea mays) [5]): 0% | plant injury at 250 g/ha (corn (Zea mays) [5]): 10% | pest or weed control at 15.625 g/ha [6]: 0% | pest or weed control at 62.5 g/ha [6]: 0% | pest or weed control at 250 g/ha [6]: 0% | pest or weed control at 15.625 g/ha [7]: 0% | pest or weed control at 62.5 g/ha [7]: 0% | pest or weed control at 250 g/ha [7]: 20% | pest or weed control at 15.625 g/ha [8]: 0% | pest or weed control at 62.5 g/ha [8]: 0% | pest or weed control at 250 g/ha [8]: 10% | pest or weed control at 15.625 g/ha [9]: 0% | pest or weed control at 62.5 g/ha [9]: 0% | pest or weed control at 250 g/ha [9]: 20% | pest or weed control at 15.625 g/ha [10]: 0% | pest or weed control at 62.5 g/ha [10]: 0% | pest or weed control at 250 g/ha [10]: 0% | plant injury at 15.625 g/ha (corn (Zea mays) [11]): 0% | plant injury at 62.5 g/ha (corn (Zea mays) [11]): 0% | plant injury at 250 g/ha (corn (Zea mays) [11]): 0% | pest or weed control at 15.625 g/ha [12]: 0% | pest or weed control at 62.5 g/ha [12]: 0% | pest or weed control at 250 g/ha [12]: 20%
